Experimental data taken from patent US10865222B2, “Neisseria gonorrhoeae therapeutic based on CMP-nonulosonate sugars” (priority 2014, dated 2020).
“Also recorded” adds a separate entry of the source.

Legend:
[1] = biological target: T1, gonococcal LOS sialyltransferase (Lst) (Neisseria gonorrhoeae, UniProt P72074); type: cell-based, N. gonorrhoeae; settings: CMP salt 30 μM (20 μg/ml), 2 h at 37° C.
T1 construct: served as substrates for gonococcal Lst in the context of live bacteria; endogenous in cells; host or cells: N. gonorrhoeae F62 ΔlgtD (live bacteria)
Protocol: FIG. 1. Substrate specificity of gonococcal LOS sialyltransferase (Lst) N. gonorrhoeae strain F62 ΔIgtD was grown in standard gonococcal liquid media alone (‘No sialic acid’) or in media supplemented with CMP salts of the indicated sialic acid or nonulosonic acid, each at a concentration of 20 μg/ml (˜30 μM), for 2 h at 37° C. Bacteria were washed, pellets treated with protease K, lysed in 4×LDS buffer and lysates were separated on 12% Bis-Tris gels using MES running buffer. LOS was transferred to a PVDF membrane and probed with mAb 3F11 that recognizes the lacto-N-neotetraose only in the non-sialylated state; the addition of a sialic acid or nonulosonate residue abrogates mAb 3F11 binding (upper panel). LOS was also visualized by silver staining (middle panel). Sialylation or nonulosonate (NulO) modification was also quantified using whole cell ELISA with mAb 3F11 (lower graph).
To define the substrate specificity of gonococcal LOS sialyltransferase, N. gonorrhoeae F62 ΔIgtD was grown in media alone, or media that contained the CMP-activated derivatives of 7 nonulosonates (listed in Table 1), each at a concentration of 30 μM (20 μg/ml). Following incubation for 2 h at 37° C., bacteria were washed, lysed with protease K/LDS sample buffer and separated on 12% Bis-tris gels. Blots were probed with mAb 3F11, which binds to the terminal lactosamine residue of lacto-N-neotetraose (LNT); any extension beyond the terminal Gal (in this instance with a nonose) would abrogate 3F11 binding. […] Whole cell ELISA with mAb 3F11 confirmed results of western blotting (FIG. 1, lower graph).
Bacteria (F62 ΔIgtD) grown overnight on chocolate agar plates were suspended in gonococcal liquid media supplemented with IsoVitaleX (11) that contained specified concentrations of the CMP-nonulosonate. Bacteria were then incubated at 37° C. for the period specified in each experiment.
Gonococcal lysates treated with protease K (100 μg/ml) and NuPAGE® LDS Sample Buffer (4×) (Invitrogen) were separated on NuPAGE® 12% Bis-Tris (Invitrogen) gels using Novex® MES running buffer (Invitrogen) followed by sliver staining with the Bio-Rad Silver Stain Kit, or were transferred to an Immobilon PVDF membrane (Millipore). Membranes were blocked with PBS/1% milk and probed with tissue culture supernatants that contained mAb 3F11. mAb 3F11-reactive LOS bands were disclosed with anti-mouse IgM conjugated to alkaline phosphatase followed by the addition of BCIP®/NBT-Purple Liquid Substrate (Sigma).

N. gonorrhoeae F62 ΔIgtD [2] = experiment: Flow cytometry for factor H binding to bacteria; type: cell-based
Protocol: FIG. 3. Effects of LOS modification with various nonulosonate analogues on fH binding to N. gonorrhoeae. N. gonorrhoeae F62 ΔIgtD was grown in media alone, or media supplemented with 20 μg/ml (˜30 μM) of each of the indicated CMP-nonulosonates. Binding of bacteria to fH (10 μg/ml) was measured by flow cytometry using polyclonal goat anti-human fH. The control indicates reaction mixtures that lacked fH. Y-axis, median fluorescence of fH binding. The mean (SD) of 2 independent repeats is shown.
FIG. 7. […] A. N. gonorrhoeae F62 ΔIgtD was incubated in media containing CMP-Neu5Ac (20 μg/ml), followed […] by the addition of either CMP-Neu5Ac9Az or CMP-Leg5Ac7Ac (20, 2 or 0.2 μg/ml). Bacteria were grown for 2 h and fH binding detected by FACS using polyclonal goat anti-human fH. The Y-axis represents median fluorescence. The mean (SEM) of two independent observations is shown. B. Development of serum resistance lags behind fH binding when measured as a function of time of exposure of bacteria to CMP-Neu5Ac. CMP-Neu5Ac (20 μg/ml) was added to media containing F62 ΔIgtD and bacteria were taken at the time points indicated on the X-axis and assayed for fH binding by FACS with anti-fH mAb 90× (left Y-axis; median fluorescence (SEM)), or tested for its ability to resist killing by 10% NHS (right Y-axis; percent survival). The data represent 2-3 independent experiments. C. Representative histograms of a fH binding FACS experiment.
The addition of a terminal Neu5Ac residue to LNT-expressing LOS enhances binding of the alternative pathway inhibitor, factor H, which contributes to the ability of sialylated gonococci to resist killing by complement (7). fH binding to N. gonorrhoeae F62 ΔIgtD grown in the presence of each of the CMP-nonulosonates (20 μg/ml or 30 μM) was examined (FIG. 3). […] Reducing the CMP-nonulosonate concentrations in growth media to 2 μg/ml (3 μM) yielded similar fH binding results (FIG. 9B). Further, modification of LOS with Neu5Ac or Neu5Gc yielded similar amounts of fH binding over CMP-sialic acid concentrations ranging from 0.5 to 4 μg/ml, with near maximal fH binding observed even at the lowest concentration tested (FIG. 9C).
fH binding to bacteria was performed using flow cytometry as described previously (14). Briefly, bacteria (F62 ΔIgtD) were harvested from chocolate agar plates and grown in liquid media that contained the specified concentration of the CMP-nonulosonate as described above. Bacteria were then washed with Hanks Balanced Salt Solution (HBSS) containing 1 mM Ca^2+ and 1 mM Mg^2+ (HBSS^++) and incubated with fH purified from human plasma (Complement Technology, Inc.; concentration specified for each experiment). Bound fH was detected using either anti-fH mAb (Quidel, catalog no. A254 (mAb 90×)) or goat anti-human fH, followed by FITC conjugated anti-mouse IgG or anti-goat IgG, respectively (Sigma); both Abs had similar performance characteristics. All reaction mixtures were carried out in HBSS^++/1% BSA in a final volume of 50 μl. Flow cytometry was performed using a FACSCalibur instrument (Becton Dickinson) and data were analyzed using FlowJo (version 7.2.5; Tree Star, Inc.).

N. gonorrhoeae F62 ΔIgtD [3] = type: cell-based
Protocol: FIG. 2. […] N. gonorrhoeae F62 ΔIgtD was grown in media alone (no CMP-sialic acid added), or media that contained 20 μg/ml (˜30 μM) of each of the indicated CMP-nonulosonates. Resistance of bacteria to complement-dependent killing in the presence of 3.3%, 6.7% or 10% normal human serum (NHS) was measured in serum bactericidal assays.
FIG. 5. […] N. gonorrhoeae F62 ΔIgtD was suspended in media containing 20 μg/ml (˜30 μM) CMP-Neu5Ac. Following 15 min of incubation at 37° C., CMP-Neu5Ac9Az or CMP-Leg5Ac7Ac (at concentrations of 20, 2 or 0.2 μg/ml final) were added and bacteria were incubated for 2 h. Serum bactericidal assays were then performed using 3.3% (solid black bars) or 10% (hatched bars) NHS. Controls included bacteria in media that lacked any CMP-nonulosonate, or bacteria that were incubated in CMP-Neu5Ac only. Y-axis, % survival.
We next determined the effects of incorporation of the CMP salts of five structural analogues of Neu5Ac (Neu5Gc, Neu5Ac9Ac, Neu5Ac9Az, Neu5Gc8Me and Leg5Ac7Ac) on the ability of N. gonorrhoeae F62 ΔIgtD to resist complement-dependent killing by normal human serum at concentrations of 10, 6.7 or 3.3%. Bacteria were grown either in media alone, or media supplemented with 30 μM (˜20 μg/ml) of each of the CMP-nonulosonates.
The ability of two of the CMP-nonulosonates, CMP-Neu5Ac9Az and CMP-Leg5Ac7Ac, to counter the ability of CMP-Neu5Ac to enhance serum resistance of N. gonorrrhoeae was then examined. The analogues were added at concentrations of 20, 2 or 0.2 μg/ml to growth media 15 min after the addition of CMP-Neu5Ac (20 μg/ml) to F62 ΔIgtD.
Serum bactericidal assays were performed as described previously (11). Bacteria harvested from an overnight culture on chocolate agar plates were grown in liquid media containing the specified concentration of CMP-nonulosonate as specified for each experiment. Approximately 2000 CFU of F62 ΔIgtD were incubated with NHS (concentration specified for each experiment). The final reaction volumes were maintained at 150 μl. […]

T1 sequence (P72074 whole entry): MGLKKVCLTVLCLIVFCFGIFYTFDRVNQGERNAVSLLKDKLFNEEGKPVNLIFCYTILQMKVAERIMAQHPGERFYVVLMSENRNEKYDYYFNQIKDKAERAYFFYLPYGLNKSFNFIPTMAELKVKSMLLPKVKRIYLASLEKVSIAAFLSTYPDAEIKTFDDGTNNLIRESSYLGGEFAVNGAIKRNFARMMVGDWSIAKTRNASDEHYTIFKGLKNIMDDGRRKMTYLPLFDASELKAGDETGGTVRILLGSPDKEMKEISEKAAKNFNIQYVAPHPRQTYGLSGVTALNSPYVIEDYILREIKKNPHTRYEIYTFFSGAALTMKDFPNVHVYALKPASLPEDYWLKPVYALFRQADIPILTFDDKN

Structure (SMILES): Nc1ccn([C@@H]2O[C@H](COP(=O)(O)O[C@@]3(C(=O)O)C[C@H](O)[C@@H](NC(=O)CO)[C@H]([C@H](O)[C@H](O)CO)O3)[C@@H](O)[C@H]2O)c(=O)n1 [CMP-Neu5Gc, CMP-5-hydroxyacetamido-3,5-dideoxy-D-glycero-D-galacto-nonulosonic acid, reference compound]
- mAb 3F11 binding / incorporation of nonulosonate onto LNT LOS (use as Lst substrate) [1]: decreased binding of mAb 3F11
- fH binding (N. gonorrhoeae F62 ΔIgtD [2]; CMP-nonulosonate 20 μg/ml or 30 μM, vs unsialylated F62 ΔIgtD): Maximal
- fH binding (N. gonorrhoeae F62 ΔIgtD [2]; CMP-sialic acid 0.5 to 4 μg/ml, lowest concentration tested): near maximal
- fH binding (N. gonorrhoeae F62 ΔIgtD [2]; summary Table 1): high
- resistance to 10% serum (N. gonorrhoeae F62 ΔIgtD [3]; CMP-nonulosonate 3 μM (~2 μg/ml), 10% serum): conferred resistance
- Serum resistance (N. gonorrhoeae F62 ΔIgtD [3]; summary Table 1): high (>100% survival in 10% serum)

Structure (SMILES): CC(=O)N[C@H]([C@@H]1O[C@](OP(=O)(O)OC[C@H]2O[C@@H](n3ccc(N)nc3=O)[C@H](O)[C@@H]2O)(C(=O)O)C[C@H](O)[C@@H]1NC(C)=O)[C@H](C)O [CMP-Pse5Ac7Ac, reference compound]
- mAb 3F11 binding / incorporation of nonulosonate onto LNT LOS (use as Lst substrate) [1]: not incorporated; also recorded: not utilized
- bacterial survival / serum resistance (N. gonorrhoeae F62 ΔIgtD [3]; all serum concentrations tested (10, 6.7, 3.3%), 30 μM): did not affect serum resistance
